What was measured:
P-gp [1] = biological target: T1, P-gp (Homo sapiens, UniProt P08183); assay: P-gp inhibition by calcein-AM uptake in hMDR1-MDCK-II cells
Protocol: Cells were seeded in 96-well plates at 70,000 cells/well in 200 μL of culture medium. The medium was changed at 24 h after seeding and the assay was performed 48 h later.

PXR = biological target: T2, PXR (Homo sapiens, UniProt O75469); assay: Inhibition of rifampicin-induced PXR activity, reporter gene assay in HepG2 cells; type: cell-based; conditions: extract 3–30 μg/mL, saponins 3–30 μM
T2 construct: expressed in transfected cells; host or cells: HepG2 cells, transient electroporation with pSG5-PXR and the CYP3A4-PXRE-LUC reporter
T2 sequence (O75469 1-434): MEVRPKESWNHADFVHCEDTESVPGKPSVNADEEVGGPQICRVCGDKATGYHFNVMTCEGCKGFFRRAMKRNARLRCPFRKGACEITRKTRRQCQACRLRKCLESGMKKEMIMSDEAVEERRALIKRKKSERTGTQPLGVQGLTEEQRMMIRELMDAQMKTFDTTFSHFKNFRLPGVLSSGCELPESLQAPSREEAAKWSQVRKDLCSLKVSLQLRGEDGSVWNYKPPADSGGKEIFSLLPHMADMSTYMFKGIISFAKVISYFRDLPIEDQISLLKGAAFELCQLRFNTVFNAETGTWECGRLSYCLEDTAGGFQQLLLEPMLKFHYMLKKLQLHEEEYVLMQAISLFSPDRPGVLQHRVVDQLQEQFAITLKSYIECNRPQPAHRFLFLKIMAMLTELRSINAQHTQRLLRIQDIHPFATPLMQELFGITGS
Source text: The pSG5-hPXR expression vector was provided generously by Dr. Steven Kliewer (University of Texas Southwestern Medical Center, Dallas, TX, USA; [Lehmann et al., 1998]) and the reporter plasmid CYP3A4-PXR response element (PXRE)-LUC (containing the proximal 0/–362 and distal 7208/7797 PXRE regions fused upstream of luciferase; [Goodwin et al., 1999]) was a kind gift from Dr. Christopher Liddle (University of Sydney, Westmead, NSW, Australia). The modulation of PXR activity by test samples was determined in HepG2 cells transiently transfected with pSG5-PXR (25 μg) and PCR5 plasmid DNA (25 μg) by electroporation at 180 V, 1 pulse for 70 msec. The cells were plated in 96-well plates at a density of 50,000 cells per well. […] After additional 24 hour incubation, the media was aspirated and 40 μL of luciferase reagent (Promega Corporation, Madison, WI, USA) was added to each well and luminescence was measured on Spectramax M5 plate reader (Molecular Devices, Sunnyvale, CA, USA). The fold induction in luciferase activity in the treated cells was calculated in comparison to vehicle treated cells. The cytotoxicity of test samples toward HepG2 cells was also determined by measuring the cell viability using the CellTiter 96 AQueous One Solution Cell Proliferation Assay (MTS) as described earlier ([Manda et al., 2013]).

P-gp [2] = biological target: T1, P-gp; assay: P-gp inhibition by 3H-digoxin basolateral to apical transport in hMDR1-MDCK-II cells
Protocol: The cells were seeded at a density of 120,000 cells/well in 12-well Transwell plates and cultured for 3 days. […] Cells were washed with warm HBSS buffer supplemented with 10 mM HEPES (pH 7.4) and pre-incubated with 0.5 mL of buffer containing test samples (six concentrations) on the apical side and 1.5 mL of buffer on the basolateral side for 30 min (37 °C, 5% CO2, and 95% relative humidity). […] Aliquots of 25 μL were taken out from the apical side, mixed with 100 μL of scintillant (Microscint TM-40, PerkinElmer) and radioactive counts were measured on a TopCount microplate scintillation counter (PerkinElmer, Waltham, MA, USA) in CPM mode.
The inhibition of the basolateral to apical (B-A) transport of digoxin by test samples was calculated compared to the vehicle control.

[3] = Estimation of concentration per dose, GIT and plasma concentrations (560 mg KF extract dose); design: species or system human; conditions: for Estimated concentration per dose: 560 mg KF extract, single dose, from % yield; for Estimated GIT concentration / Estimated Plasma concentration: 560 mg dose; for Estimated GIT concentration: human GIT volume 250 mL; for Estimated Plasma concentration: Table 2, plasma volume 3 L, 100% bioavailable assumed
Protocol: All assumptions to predict the HDI potential of KF methanolic extract and its constituents were according to previously published report ([Awortwe et al., 2014]). The % yield was calculated from the amounts extracted from the KF roots ([Ali and Khan, 2011]). The human GIT volume is 250 mL and plasma volume is about 3 L. The commonly used maximum dose of KF extract capsules is 560 mg per day ([Abdul Kadir et al., 2012]) and accordingly we estimated the concentration per dose, GIT, and plasma concentrations of extract and its constituents. We then compared the in vitro IC50 values obtained from recombinant CYPs with estimated GIT and plasma concentrations. If the IC50 values were lower than the GIT or plasma concentration, then the test compound or extract is likely to cause HDI in vivo.

[4] = system: hMDR1-MDCK-II cell monolayers; assay: Monolayer integrity: permeability of Lucifer yellow; type: in vitro ADME, canine; conditions: paracellular marker
Protocol: The cells were seeded at a density of 120,000 cells/well in 12-well Transwell plates and cultured for 3 days. TEER values were in the range of 500–800 Ω cm^2. Cells were washed with warm HBSS buffer supplemented with 10 mM HEPES (pH 7.4) and pre-incubated with 0.5 mL of buffer containing test samples (six concentrations) on the apical side and 1.5 mL of buffer on the basolateral side for 30 min (37 °C, 5% CO2, and 95% relative humidity).

T1 sequence (P08183 whole entry): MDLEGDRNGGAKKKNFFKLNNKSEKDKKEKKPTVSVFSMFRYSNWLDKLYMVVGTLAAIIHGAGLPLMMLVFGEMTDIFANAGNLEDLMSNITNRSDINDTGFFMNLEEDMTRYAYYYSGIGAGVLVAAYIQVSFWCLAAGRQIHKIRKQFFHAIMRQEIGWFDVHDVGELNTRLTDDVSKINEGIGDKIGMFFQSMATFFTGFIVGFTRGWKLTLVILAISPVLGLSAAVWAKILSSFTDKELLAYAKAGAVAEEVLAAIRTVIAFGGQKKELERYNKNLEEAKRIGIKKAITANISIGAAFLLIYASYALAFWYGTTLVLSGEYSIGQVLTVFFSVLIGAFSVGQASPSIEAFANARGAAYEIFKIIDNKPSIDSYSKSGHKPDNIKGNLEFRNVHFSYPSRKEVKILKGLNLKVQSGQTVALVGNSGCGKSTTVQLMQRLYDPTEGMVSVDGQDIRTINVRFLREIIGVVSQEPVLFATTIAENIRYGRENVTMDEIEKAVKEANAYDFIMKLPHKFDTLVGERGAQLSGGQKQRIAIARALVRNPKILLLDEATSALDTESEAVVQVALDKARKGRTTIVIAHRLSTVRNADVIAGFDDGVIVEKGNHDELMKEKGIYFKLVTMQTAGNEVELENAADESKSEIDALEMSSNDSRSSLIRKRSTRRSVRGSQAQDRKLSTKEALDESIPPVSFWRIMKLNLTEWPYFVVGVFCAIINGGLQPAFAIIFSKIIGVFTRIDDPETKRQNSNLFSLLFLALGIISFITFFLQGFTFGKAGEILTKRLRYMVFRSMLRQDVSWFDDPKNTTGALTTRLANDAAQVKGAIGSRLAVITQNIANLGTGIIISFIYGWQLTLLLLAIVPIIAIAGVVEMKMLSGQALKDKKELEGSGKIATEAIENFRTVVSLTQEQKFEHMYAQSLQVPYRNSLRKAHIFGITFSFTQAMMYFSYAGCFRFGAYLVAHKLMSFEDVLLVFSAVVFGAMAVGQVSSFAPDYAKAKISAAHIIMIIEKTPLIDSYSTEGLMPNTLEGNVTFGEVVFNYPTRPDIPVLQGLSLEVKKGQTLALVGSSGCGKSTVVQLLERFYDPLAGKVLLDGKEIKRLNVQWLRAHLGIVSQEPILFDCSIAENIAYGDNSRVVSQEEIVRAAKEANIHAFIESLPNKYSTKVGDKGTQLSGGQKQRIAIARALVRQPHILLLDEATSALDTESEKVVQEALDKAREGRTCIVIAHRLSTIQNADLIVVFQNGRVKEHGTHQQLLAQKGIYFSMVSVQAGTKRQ

In the case of C[C@@H]1O[C@@H](O[C@H]2[C@H](O[C@H]3CO[C@@H](O[C@H]4CC[C@]5(C)[C@H]6CC[C@]78OC[C@@]9(CC[C@](C)(C=O)C[C@H]97)C(=O)C[C@@]8(C)[C@]6(C)CC[C@H]5C4(C)C)[C@H](O)[C@H]3O)O[C@H](CO)[C@@H](O)[C@@H]2O)[C@H](O)[C@H](O)[C@H]1O [Ardisimamilloside H], the EC50 (P-gp [1]) is reported as 42 ± 3.5 µM, the “Effect on rifampicin-induced PXR activity” value (PXR) is reported as “dose dependently decreased” and the IC50 (P-gp [2]) is reported as 4.2 ± 1.1 µM. The “Estimated concentration per dose” value [3] was 0.011 mg/mL, the “Estimated GIT concentration” value [3] was 0.047 µg/mL and the “Estimated Plasma concentration” value [3] was 0.003 µg/mL.

For CC1(C)[C@@H](O[C@@H]2OC[C@H](O[C@@H]3O[C@H](CO)[C@@H](O)[C@H](O)[C@H]3O[C@@H]3OC[C@@H](O)[C@H](O)[C@H]3O)[C@H](O)[C@H]2O)CC[C@]2(C)[C@H]3CC[C@]45OC[C@@]6(CC[C@](C)(C=O)C[C@H]64)[C@H](O)C[C@@]5(C)[C@]3(C)CC[C@@H]12 [Primulanin], the EC50 (P-gp [1]) was 34 ± 2.3 µM, the “Effect on rifampicin-induced PXR activity” value (PXR) was “dose dependently decreased” and the IC50 (P-gp [2]) was 6.4 ± 2.3 µM. For the same compound, the “Estimated concentration per dose” value [3] was 0.07 mg/mL, the “Estimated GIT concentration” value [3] was 0.31 µg/mL and the “Estimated Plasma concentration” value [3] was 0.026 µg/mL.

With Lucifer yellow [LY] the Papp value [4] was 1.1 ± 0.8 × 10^-6 cm/s.

Source: article PMC4126480, “Evaluation of drug interaction potential of Labisia pumila (Kacip Fatimah) and its constituents” (Frontiers in Pharmacology, 2014)
